Values joined by “and” are separate entries in the source; they are usually repeats but may differ in a detail not shown here. Equal entries are not always repeated.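 Dose response: 5 concentrations. Exposure: 48 h. Format: 96-well plates. Endpoint: linear interpolation; highest concentration if not reached. Abbreviation: GI50, concentration required for 50% inhibition of growth. TGI is the concentration that stops growth completely.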
Key:
Experiment in all cases: growth of human tumour cells (NCI), 48 h
A549 NSCLC = system: A549 NSCLC
HCC-2998 colon = system: HCC-2998 colon
OVCAR-3 ovarian = system: OVCAR-3 ovarian
OVCAR-8 ovarian = system: OVCAR-8 ovarian
RXF 393 renal = system: RXF 393 renal
SK-MEL-2 melanoma = system: SK-MEL-2 melanoma
SW-620 colon = system: SW-620 colon
UACC-62 melanoma = system: UACC-62 melanoma
NCI-H226 lung = system: NCI-H226 lung
RPMI-8226 leukemia = system: RPMI-8226 leukemia

Row | SMILES | TGI (A549 NSCLC) | TGI (HCC-2998 colon) | TGI (OVCAR-3 ovarian) | TGI (OVCAR-8 ovarian) | TGI (RXF 393 renal) [µM] | TGI (SK-MEL-2 melanoma) | TGI (SW-620 colon) | TGI (UACC-62 melanoma) | TGI (NCI-H226 lung) | TGI (RPMI-8226 leukemia) | GI50 (A549 NSCLC) | GI50 (HCC-2998 colon) [µM] | GI50 (OVCAR-3 ovarian) | GI50 (OVCAR-8 ovarian) [µM] | GI50 (RPMI-8226 leukemia) | GI50 (SK-MEL-2 melanoma) [µM] | GI50 (SW-620 colon) | GI50 (UACC-62 melanoma) | GI50 (NCI-H226 lung) | GI50 (RXF 393 renal) [µM]
1 | COc1cccc2c1C(=O)c1c(O)c3c(c(O)c1C2=O)C[C@@](O)(C(C)=O)C[C@@H]3OC1CC([N+]([O-])(Cc2ccccc2)Cc2ccccc2)C(O)C(C)O1 (some centres undefined) | 5.18 µM | 3.07 µM | 3.28 µM | 14.9 µM | 2.57 | 3.46 µM | 2.54 µM | 2.83 µM | – | – | – | – | – | – | – | – | – | – | – | –
2 | Cn1cnc([N+](=O)[O-])c1Sc1nnnn1C | > 100 µM | 51.2 µM | 29.4 µM | 33.2 µM | – | 37.3 µM | 26 µM | 32 µM | > 100 µM | > 100 µM | – | – | – | – | – | – | – | – | – | –
3 | O=C1CSC(c2ccc(-c3nc4ccccc4[nH]3)cc2)=N1 | > 50 µM | > 50 µM | > 50 µM | > 50 µM | – | > 50 µM | > 50 µM | > 50 µM | – | > 50 µM | 18.8 µM | 16.3 | 33.8 µM | 23 | 11.7 µM | 19 | > 50 µM | 12.5 µM | – | –
4 | NCCOCn1cc(Cc2cccc(OCc3ccccc3)c2)c(=O)[nH]c1=O | > 100 µM | > 100 µM | > 100 µM | > 100 µM | – | > 100 µM | > 100 µM | > 100 µM | > 100 µM | > 100 µM | – | – | – | – | – | – | – | – | – | –
5 | O=C1C=C2C=CC3CC2(O1)C1CCCCN31 (centres undefined) | > 100 µM and 63.4 µM | 40.9 µM and 42.4 µM and 86.4 µM | 69.6 µM and 48.1 µM and > 100 µM | 72.6 µM and 40.2 µM and 93.8 µM | – | > 100 µM and 44.5 µM and 94.4 µM | 42.4 µM and 39 µM and > 100 µM | 42.3 µM and 30.1 µM and > 100 µM | > 100 µM and 45.3 µM | 58.9 µM and 45.7 µM and > 100 µM | 31.8 µM and 22.9 µM and 64.4 µM | – | 18.6 µM and 17.3 µM and 40.6 µM | – | 7.45 µM and 15.1 µM and 29.3 µM | – | 16.9 µM and 13.7 µM and 38 µM | 15.8 µM and 13.9 µM and 57.1 µM | 19.7 µM and 6 µM and 51.7 µM | –
6 | CCCCCCCCCCCC[N+](C)(C)Cc1ccccc1 | 5.21 µM | – | 4.02 µM | 6.75 µM | – | 3.6 µM | 12.1 µM | – | 18.6 µM | 3.31 µM | 2.04 µM | – | 1.71 µM | 2.16 | 1.28 µM | 1.97 | 2.69 µM | – | 2.84 µM | –
7 | O=C(N/C(=C\c1c(O)ccc2ccccc12)c1nc2ccccc2[nH]1)c1ccccc1 | > 100 µM | > 100 µM | > 100 µM | > 100 µM | 47.7 | > 100 µM | > 100 µM | > 100 µM | – | > 100 µM | – | – | – | – | – | – | – | – | – | –
8 | CC1(C)OC2CC3COC(=O)C3CC2O1 (centres undefined) | > 100 µM | > 100 µM | > 100 µM | > 100 µM | – | > 100 µM | > 100 µM | > 100 µM | > 100 µM | > 100 µM | – | – | – | – | – | – | – | – | – | –
9 | C/C(=N\NC(=O)CC#N)C(CN1CCCCC1)C(c1ccccc1)c1c(O)c2ccccc2oc1=O (centres undefined) | > 100 µM | > 100 µM | > 100 µM | > 100 µM | – | > 100 µM | > 100 µM | > 100 µM | > 100 µM | > 100 µM | – | – | – | – | – | – | – | – | – | –
10 | NC(=O)COc1c(Br)cc(Br)cc1Br | > 100 µM | > 100 µM | > 100 µM | > 100 µM | – | > 100 µM | – | > 100 µM | > 100 µM | > 100 µM | – | – | – | – | – | – | – | – | – | –
11 | O=C1NC(=O)C(=Cc2c3ccccc3cc3ccccc23)C(=O)N1 | > 100 µM | – | – | > 100 µM | > 100 | – | > 100 µM | > 100 µM | – | > 100 µM | – | – | – | – | – | – | – | – | – | –
12 | COc1cc2c(c(O)c1C)C(=O)CC(c1ccccc1)O2 (centres undefined) | > 100 µM | > 100 µM | > 100 µM | > 100 µM | – | 95.4 µM | > 10 µM | > 100 µM | 41.5 µM | – | – | – | – | – | – | – | – | – | – | –
13 | COC1=CC(=O)C(Br)=CC1=O | > 100 µM | > 100 µM | – | 65.8 µM | 32.3 | 45.7 µM | 54.9 µM | 32.1 µM | – | 50.6 µM | – | – | – | – | – | – | – | – | – | –
14 | Cc1cc2c(c3nocc13)C(=O)c1ccccc1C2=O | > 100 µM | > 100 µM | > 100 µM | > 100 µM | > 100 | > 100 µM | > 100 µM | > 100 µM | – | > 100 µM | – | – | – | – | – | – | – | – | – | –
15 | Cc1c(NC(=O)CCl)c(=O)oc2c(C)c3occc(=O)c3cc12 | 35 µM | 32.8 µM | – | 43.2 µM | – | – | 30.6 µM | – | – | 60.1 µM | – | – | – | – | – | – | – | – | – | –
16 | CCN(CC)CCCOc1ccc2ncnc(Nc3ccc(Oc4cccc(C(F)(F)F)c4)c(Cl)c3)c2c1 | – | 3.09 µM | 2.84 µM | – | 2.97 | – | 3.09 µM | 3.22 µM | – | – | – | 1.58 | 1.45 µM | – | – | – | 1.61 µM | 1.76 µM | – | 1.45
17 | CC(=O)O[C@@]12CO[C@@H]1C[C@H](O)[C@@]1(C)C(=O)[C@H](O)C3=C(C)[C@@H](OC(=O)[C@H](O)[C@@H](NC(=O)OC(C)(C)C)c4ccccc4)C[C@@](O)([C@@H](OC(=O)c4ccccc4)C12)C3(C)C (some centres undefined) | 50 µM and > 100 µM | 0.00872 µM and 0.0429 µM | – | 50 µM | – | > 100 µM | 50 µM and > 100 µM | 33.7 µM | > 100 µM | 34 µM and 24.5 µM | < 0.005 µM | < 0.005 | < 0.005 µM | < 0.005 | < 0.005 µM | 0.0355 | < 0.005 µM | 0.0922 µM | 12.8 µM | –
